# Reference: patent US9717727B2, “Methods of treating and preventing leukemia and other cancers of the blood and bone” (The Trustees of Columbia University in the City of New York, priority 2011, dated 2017)
# Experiments:
# [1] = test system: osteoblasts; assay: Histomorphometric bone analysis, EL4 study (Example 9); type: in vivo, mice
# Description: Histomorphometric analyses were performed on vertebral column specimens collected from 2 months old mice using undecalcified sections using the osteomeasure analysis system (Osteometrics). Lumbar vertebrae were dissected, fixed for 24 hours in 10% formalin, dehydrated in graded ethanol series, and embedded in methyl methacrylate resin according to standard protocols (Chappard et al. (1987); Parfitt et al. (1987)).
# Bone formation rate (BFR) was analyzed by the calcein double-labeling method. Calcein (Sigma) was dissolved in calcein buffer (0.15 M NaCl, 2% NaHCO3) and administered by an intraperitoneal injection of 25 μg/g body weight, 6 days and 2 days before sacrificing the animals. In experiments evaluating survival rates of animals, bone formation rate was not calculated due to the unknown time of death. Unstained 4-μm sections were used for BFR measurements.
# For the analysis of parameters of osteoblast and osteoclast, 4-μm sections were stained with toluidine blue and tartrate-resistant acid phosphatase (TRAP), respectively. Type I collagen content and bone volume over trabecular volume (BV/TV) were analyzed using 7-μm sections by Von Gieson and Von Kossa staining […] respectively in undecalcified sections. Images were taken using a 10× objective on a Leica microscope outfitted with camera. Six to ten animals were analyzed for each group.
# Mice were treated orally with LP-533401 (25 or 200 mg per kg of body weight per day) or vehicle. Treatments started 15 days before malignant cell injections in all sets of experiments, and continued for the indicated periods of time. LP-533401 was dissolved in polyethylene glycol (PEG) and 5% dextrose or 2.5% glucose (Sigma), and given daily by oral gavage. Mice treated with vehicle were administered, in the same way as LP533401, a solution of PEG and 5% dextrose or 2.5% glucose, daily, by oral gavage.
# Bioluminescence imaging, luciferase intensity measurement, hind-limb paralysis, blood cell counts, bone mass, osteoblast number, bone formation rate and survival were determined as previously described in Examples 2, 3, and 5-7.
# [2] = test system: EL4 cells; assay: EL4 leukemia mouse model, all mice sacrificed at day 15 (Example 10); type: in vivo
# Description: Mice were sacrificed at pre-determined time points as specified before or upon signs of illness. Each animal was weighed before blood was sampled, and visually examined for tumor development. Spleens were isolated and weighed. Spleens and tissue samples from liver were fixed in 10% neutral formalin solution for 48 hours. Osseous samples (thoracic spine, sternum, pelvis, and stifle joint) were decalcified in Decalcifier System I (Leica Microsystems, Inc.) for 48 h after fixation. All tissues were processed by routine methods and embedded in paraffin Sections of 4 or 5 μm were stained with hematoxylin and eosin (H&E) according to standard procedures. Luciferase intensity was measured by plating 4.5 million bone marrow cells into 6-well plates. Luciferin was added at a final concentration of 150 μg/mL and luciferase activity was measured at a luminometer. Mice were treated orally with LP-533401 (25 or 200 mg per kg of body weight per day) or vehicle. Treatments started 15 days before malignant cell injections in all sets of experiments, and continued for the indicated periods of time. LP-533401 was dissolved in polyethylene glycol (PEG) and 5% dextrose or 2.5% glucose (Sigma), and given daily by oral gavage. Mice treated with vehicle were administered, in the same way as LP533401, a solution of PEG and 5% dextrose or 2.5% glucose, daily, by oral gavage. The same mice and techniques used in Example 9 were used in this Example, except all of the mice were sacrificed at day 15 following EL4 cell injection
# [3] = test system: bone loss; conditions: in vivo; cited from earlier work
# [4] = LP-533401 25 or 200 mg/kg/day oral
compound,measurement,setting,value
Nc1nc(OC(c2ccc(-c3cccc(F)c3)cc2)C(F)(F)F)cc(-c2ccc(C[C@H](N)C(=O)O)cc2)n1 (stereo partly drawn) [LP-533401],bone resorption,[1]; EL4 study,not affected
same,increase in bone formation rate,[1]; [4],30%
same,increase in bone mass,[1]; [4],30%
same,increase in osteoblast numbers,[1]; [4],30%
same,"leukemia-induced decrease in osteoblast numbers, bone formation rate and trabecular bone volume",[1]; leukemic mice (EL4),"inhibited the decrease in osteoblast numbers, bone formation rate, and trabecular bone volume"
same,leukemic infiltration in the marrow (histology),[2]; day 15,reduced leukemic infiltration
same,leukemic mice with 20 to 40% blasts in the bone marrow,[2]; day 15,40%
same,leukemic mice with increased megakaryocyte number,[2]; day 15,20%
same,leukemic mice with less than 20% of blasts in the bone marrow,[2]; day 15,40%
same,leukemic mice with more than 80% blasts in the bone marrow,[2]; day 15,20%
same,"leukemia-induced changes in WBCs, monocytes, neutrophils and lymphocytes","[2]; day 15, leukemic mice",all prevented
same,liver leukemic involvement,"[2]; day 15, leukemic mice",normal or only small size focal infiltrates
same,myeloid hyperplasia,"[2]; day 15, leukemic mice",Mild myeloid hyperplasia
same,prevalence of immature lymphoblastic cells in the blood compared to healthy controls,"[2]; day 15, leukemic mice",did not show an increase
same,EL4 tumor burden,"[2]; day 15, whole body and bone marrow",decreased in whole body and in the bone marrow
same,"leukemia-caused decrease in bone volume, osteoblast numbers and bone formation rate",[2]; day 15 after EL4 injection,ameliorated
same,osteoclast numbers,[2]; day 15 after EL4 injection,Neither injection with EL4 cells nor treatment with LP-533401 affected osteoclast numbers
same,effect against bone loss,[3],effective against bone loss
